Key:
Experiment in all cases: cells
KU812 cell line = format: functional, cell-based, Homo sapiens; conditions: Homo sapiens, KU812;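 also: growth inhibition of KU812 cells, read out with a cell viability assay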
Description: SANGER: Inhibition of human KU812 cell growth in a cell viability assay.

KYSE-150 cell line = format: functional, cell-based; conditions: Homo sapiens;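 also: growth inhibition of human KYSE-150 cells, read out with a cell viability assay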
Description: SANGER: Inhibition of human KYSE-150 cell growth in a cell viability assay.

KYSE-520 cell line = format: functional, cell-based; conditions: Homo sapiens;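 also: growth inhibition of human KYSE-520 cells, read out with a viability assay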
Description: SANGER: Inhibition of human KYSE-520 cell growth in a cell viability assay.

KYSE-70 cell line = format: functional, cell-based; conditions: Homo sapiens;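 also: cell viability assay read-out, with IC50 expressing suppression of KYSE-70 cell growth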
Description: SANGER: Inhibition of human KYSE-70 cell growth in a cell viability assay.

LCLC-103H cell line = format: functional, cell-based; conditions: Homo sapiens
Description: SANGER: Inhibition of human LCLC-103H cell growth in a cell viability assay.

LXF-289 cell line = format: functional, cell-based; conditions: Homo sapiens
Description: SANGER: Inhibition of human LXF-289 cell growth in a cell viability assay.

A253 cell line = format: functional, cell-based, Homo sapiens; conditions: Homo sapiens, A253;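 also: growth inhibition of A253 cells, read out with a cell viability assay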
Description: SANGER: Inhibition of human A253 cell growth in a cell viability assay.

NB12 = format: functional, cell-based; conditions: Homo sapiens;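 also: growth inhibition of human NB12 cells, read out by a cell viability assay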
Description: SANGER: Inhibition of human NB12 cell growth in a cell viability assay.

COLO-800 = format: functional, cell-based, Homo sapiens; conditions: Homo sapiens, COLO-800;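 also: growth inhibition of COLO-800 cells, read out with a cell viability assay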
Description: SANGER: Inhibition of human COLO-800 cell growth in a cell viability assay.

MHH-ES-1 = format: functional, cell-based; conditions: Homo sapiens;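 also: cell growth inhibition measured by a cell viability assay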
Description: SANGER: Inhibition of human MHH-ES-1 cell growth in a cell viability assay.

NB69 = format: functional, cell-based, Homo sapiens; conditions: Homo sapiens, NB69;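 also: growth inhibition of NB69 cells, determined by a cell viability assay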
Description: SANGER: Inhibition of human NB69 cell growth in a cell viability assay.

O=C(NOC[C@H](O)CO)c1ccc(F)c(F)c1Nc1ccc(I)cc1F [MIRDAMETINIB]
IC50 (KU812 cell line): 0.203 µM
IC50 (KYSE-150 cell line): 0.727 µM
IC50 (KYSE-520 cell line): 0.236 µM
IC50 (KYSE-70 cell line): > 2 µM
IC50 (LCLC-103H cell line): > 2 µM
IC50 (LXF-289 cell line): > 2 µM
IC50 (A253 cell line): 1.26 µM

O=C1/C(=C/c2cccs2)CC/C1=C\c1cccs1
IC50 (NB12): 1.31 µM

CNCc1ccc(-c2[nH]c3cc(F)cc4c3c2CCNC4=O)cc1 [RUCAPARIB]
IC50 (COLO-800): 0.632 µM
IC50 (MHH-ES-1): 0.501 µM
IC50 (NB69): 0.946 µM
